Here are results for 68 sequences from the supplement of paper PMC11208160.
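Note: IS621 bridge recombinase in Escherichia coli cells against a fixed T5 target plasmid.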

The data set can be described thus: recombinant UMI read abundance after kanamycin selection (control-corrected) (log10(CPM+1)); higher = more efficient recombination; extreme values may be limits of the assay; sequences stand for … in AGTGCAGAGAAAATCGGCCAGTTTTCTCTGCCTGCAGTCCGCATGCCGTGGGACCCCTTGGGTTCTAACCTGTTGCCTAGATTTATGCAGCGGACTGCCTTTCTCCCAAAGTGATAAACCGG…AGGTTGGTTTCACT; site = the 11-nt donor. Summed up: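 Two replicates each of selected and unselected plating were used in this pooled Escherichia coli screen of donor and donor-binding-loop pairs for the IS621 bridge recombinase. Selection was with IPTG (0.07 mM) and kanamycin. Counts of recombinant UMIs, amplified across the donor–target junction, were converted to CPM, averaged, scaled by control-derived factors and reported as log10(CPM+1).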
For “TAAGGGGCATGGACCGGTTTTCCCGGTAATCCGTATTTGGC (site TAAGGGGCTGC)”, the “recombinant UMI read abundance (log10)” value came out at 2.41.
In the case of “TAAGTGTCATGGACCGGTTTTCCCGGTAATCCGTATTTGCA (site TAAGTGTCTTG)”, the “recombinant UMI read abundance (log10)” value came out at 3.32.
Consider “TAATACTCATGGACCGGTTTTCCCGGTAATCCGTATTTGCA (site TAATACTCTTG)”, for which the “recombinant UMI read abundance (log10)” value is 2.63.
Then “TAATACTCATGGACCGGTTTTCCCGGTAATCCGTATTTGCA (site TCATACTCTTG)”, with 1.69; and “TAATACTCATGGACCGGTTTTCCCGGTAATCCGTATTTGCA (site TGATACTCTTG)”, with 1.6; and “TAATACTCATGGACCGGTTTTCCCGGTAATCCGTATTTGCA (site TTATACTCTTG)”, with 1.68.
“TAATAGACATGGACCGGTTTTCCCGGTAATCCGTATTTGGC (site TAATAGACTGC)”: the “recombinant UMI read abundance (log10)” value came to 2.02.
As to “TAATCAGCATGGACCGGTTTTCCCGGTAATCCGTATTTGGG (site TAATAAGCTCC)”, the “recombinant UMI read abundance (log10)” value amounted to 0.00976.
Next, “TAATCAGCATGGACCGGTTTTCCCGGTAATCCGTATTTGGG (site TAATCAGCTCC)”: 0.0129; “TAATCAGCATGGACCGGTTTTCCCGGTAATCCGTATTTGGG (site TAATGAGCTCC)”: 0.00426.
Take “TAATCAGCATGGACCGGTTTTCCCGGTAATCCGTATTTGGG (site TAATTAGCTCC)”: the “recombinant UMI read abundance (log10)” value was determined as 0.0124.
Next, “TAATGAGCATGGACCGGTTTTCCCGGTAATCCGTATTTGGT (site TAATGAGCTAC)”: 0.862.
As for “TAATGAGCATGGACCGGTTTTCCCGGTAATCCGTATTTGGT (site TAATGAGCTCC)”, the “recombinant UMI read abundance (log10)” value turned out to be 0.00749.
Take “TAATGAGCATGGACCGGTTTTCCCGGTAATCCGTATTTGGT (site TAATGAGCTGC)”: the “recombinant UMI read abundance (log10)” value was found to be 0.
Consider “TAATGAGCATGGACCGGTTTTCCCGGTAATCCGTATTTGGT (site TAATGAGCTTC)”, for which the “recombinant UMI read abundance (log10)” value was 0.0263.
As to “TAATGATCATGGACCGGTTTTCCCGGTAATCCGTATTTGGG (site TAATGAACTCC)”, the “recombinant UMI read abundance (log10)” value stood at 0.0159.
As for “TAATGATCATGGACCGGTTTTCCCGGTAATCCGTATTTGGG (site TAATGACCTCC)”, the “recombinant UMI read abundance (log10)” value amounted to 0.00916.
As to “TAATGATCATGGACCGGTTTTCCCGGTAATCCGTATTTGGG (site TAATGAGCTCC)”, the “recombinant UMI read abundance (log10)” value was found to be 0.0135.
In the case of “TAATGATCATGGACCGGTTTTCCCGGTAATCCGTATTTGGG (site TAATGATCTCC)”, the “recombinant UMI read abundance (log10)” value was determined as 0.594.
As to “TAATGGGCATGGACCGGTTTTCCCGGTAATCCGTATTTGGG (site TAATGAGCTCC)”, the “recombinant UMI read abundance (log10)” value was 0.0138.
As to “TAATGGGCATGGACCGGTTTTCCCGGTAATCCGTATTTGGG (site TAATGCGCTCC)”, the “recombinant UMI read abundance (log10)” value was 0.0166.
Then “TAATGGGCATGGACCGGTTTTCCCGGTAATCCGTATTTGGG (site TAATGGGCTCC)”, with 0.0225.
In the case of “TAATGGGCATGGACCGGTTTTCCCGGTAATCCGTATTTGGG (site TAATGTGCTCC)”, the “recombinant UMI read abundance (log10)” value stood at 0.0203.
With “TAATTAACATGGACCGGTTTTCCCGGTAATCCGTATTTGGT (site TAATTAACTAC)”, the “recombinant UMI read abundance (log10)” value was found to be 0.813.
Then “TAATTCCCATGGACCGGTTTTCCCGGTAATCCGTATTTGCT (site AAATTCCCTAG)”, with 0.531.
“TAATTCCCATGGACCGGTTTTCCCGGTAATCCGTATTTGCT (site CAATTCCCTAG)”: the “recombinant UMI read abundance (log10)” value was determined as 0.55.
On to “TAATTCCCATGGACCGGTTTTCCCGGTAATCCGTATTTGCT (site GAATTCCCTAG)”, for which the “recombinant UMI read abundance (log10)” value came out at 1.7.
Then “TAATTCCCATGGACCGGTTTTCCCGGTAATCCGTATTTGCT (site TAATTCCCTAG)”, with 1.65; and “TACACCGCATGGACCGGTTTTCCCGGTAATCCGTATTTGAG (site TACACCGCTCT)”, with 0.702; and “TACACCGCATGGACCGGTTTTCCCGGTAATCCGTATTTGCG (site TACACCGCTCG)”, with 0.0108.
Regarding “TACACCGCATGGACCGGTTTTCCCGGTAATCCGTATTTGCG (site TCCACCGCTCG)”, the “recombinant UMI read abundance (log10)” value stood at 0.
Then “TACACCGCATGGACCGGTTTTCCCGGTAATCCGTATTTGCG (site TGCACCGCTCG)”, with 0.0236; and “TACACCGCATGGACCGGTTTTCCCGGTAATCCGTATTTGCG (site TTCACCGCTCG)”, with 0.00838.
For the sequence “TACAGCTCATGGACCGGTTTTCCCGGTAATCCGTATTTGGA (site TACAGCTCTTC)”, the “recombinant UMI read abundance (log10)” value was determined as 0.841.
Turning to “TACAGTCCATGGACCGGTTTTCCCGGTAATCCGTATTTGTA (site TAAAGTCCTTA)”, the “recombinant UMI read abundance (log10)” value came to 0.
Regarding “TACAGTCCATGGACCGGTTTTCCCGGTAATCCGTATTTGTA (site TACAGTCCTTA)”, the “recombinant UMI read abundance (log10)” value turned out to be 0.128.
As to “TACAGTCCATGGACCGGTTTTCCCGGTAATCCGTATTTGTA (site TAGAGTCCTTA)”, the “recombinant UMI read abundance (log10)” value is 0.198.
Next, “TACAGTCCATGGACCGGTTTTCCCGGTAATCCGTATTTGTA (site TATAGTCCTTA)”: 0.00977; “TACAGTTCATGGACCGGTTTTCCCGGTAATCCGTATTTGAG (site TACAGTTCTCT)”: 1.31.
With “TACATAACATGGACCGGTTTTCCCGGTAATCCGTATTTGCA (site TACATAACTTG)”, the “recombinant UMI read abundance (log10)” value was 0.258.
Consider “TACATATCATGGACCGGTTTTCCCGGTAATCCGTATTTGGG (site TACATATCTCC)”, for which the “recombinant UMI read abundance (log10)” value worked out at 0.
Then “TACATGACATGGACCGGTTTTCCCGGTAATCCGTATTTGGT (site TACATGACTAC)”, with 0.581.
As to “TACCACCCATGGACCGGTTTTCCCGGTAATCCGTATTTGAC (site TACCACCCTGT)”, the “recombinant UMI read abundance (log10)” value came out at 0.
Then “TACCCAGCATGGACCGGTTTTCCCGGTAATCCGTATTTGCT (site TACCCAGCTAG)”, with 0.0305; and “TACCCATCATGGACCGGTTTTCCCGGTAATCCGTATTTGAG (site TACCCATCTCT)”, with 0.374.
In the case of “TACCCCTCATGGACCGGTTTTCCCGGTAATCCGTATTTGGC (site TACCCCTCTGC)”, the “recombinant UMI read abundance (log10)” value amounted to 3.09.
As to “TACCCGTCATGGACCGGTTTTCCCGGTAATCCGTATTTGCT (site TACCCGTCTAG)”, the “recombinant UMI read abundance (log10)” value stood at 2.07.
In the case of “TACCGTCCATGGACCGGTTTTCCCGGTAATCCGTATTTGAT (site AACCGTCCTAT)”, the “recombinant UMI read abundance (log10)” value came to 0.0188.
Turning to “TACCGTCCATGGACCGGTTTTCCCGGTAATCCGTATTTGAT (site CACCGTCCTAT)”, the “recombinant UMI read abundance (log10)” value was found to be 0.00852.
For “TACCGTCCATGGACCGGTTTTCCCGGTAATCCGTATTTGAT (site GACCGTCCTAT)”, the “recombinant UMI read abundance (log10)” value came out at 0.00523.
Next, “TACCGTCCATGGACCGGTTTTCCCGGTAATCCGTATTTGAT (site TACCGTCCTAT)”: 0.00444; “TACCTACCATGGACCGGTTTTCCCGGTAATCCGTATTTGAG (site TACCTACCTCT)”: 0.0115; “TACCTGACATGGACCGGTTTTCCCGGTAATCCGTATTTGGC (site TACCTGACTGC)”: 0.
Next, “TACGAATCATGGACCGGTTTTCCCGGTAATCCGTATTTGCG (site TAAGAATCTCG)”: 0; “TACGAATCATGGACCGGTTTTCCCGGTAATCCGTATTTGCG (site TACGAATCTCG)”: 2.16.
Then “TACGAATCATGGACCGGTTTTCCCGGTAATCCGTATTTGCG (site TAGGAATCTCG)”, with 0.321.
Consider “TACGAATCATGGACCGGTTTTCCCGGTAATCCGTATTTGCG (site TATGAATCTCG)”, for which the “recombinant UMI read abundance (log10)” value was 2.1.
For the sequence “TACGATACATGGACCGGTTTTCCCGGTAATCCGTATTTGGA (site TACGATACTTC)”, the “recombinant UMI read abundance (log10)” value came to 0.806.
In the case of “TACGCAACATGGACCGGTTTTCCCGGTAATCCGTATTTGAC (site TACGCAACTGT)”, the “recombinant UMI read abundance (log10)” value amounted to 2.
For the sequence “TACGGAACATGGACCGGTTTTCCCGGTAATCCGTATTTGCA (site TACGGAACTTG)”, the “recombinant UMI read abundance (log10)” value stood at 1.47.
Take “TACGTCGCATGGACCGGTTTTCCCGGTAATCCGTATTTGGA (site TACGTCGCTTC)”: the “recombinant UMI read abundance (log10)” value was 1.08.
Take “TACTGAGCATGGACCGGTTTTCCCGGTAATCCGTATTTGGG (site TAATGAGCTCC)”: the “recombinant UMI read abundance (log10)” value is 0.0256.
Take “TACTGAGCATGGACCGGTTTTCCCGGTAATCCGTATTTGGG (site TACTGAGCTCC)”: the “recombinant UMI read abundance (log10)” value was found to be 0.356.
“TACTGAGCATGGACCGGTTTTCCCGGTAATCCGTATTTGGG (site TAGTGAGCTCC)”: the “recombinant UMI read abundance (log10)” value was 0.0147.
As for “TACTGAGCATGGACCGGTTTTCCCGGTAATCCGTATTTGGG (site TATTGAGCTCC)”, the “recombinant UMI read abundance (log10)” value was 0.
Turning to “TACTGCCCATGGACCGGTTTTCCCGGTAATCCGTATTTGGA (site TACTGCCCTTC)”, the “recombinant UMI read abundance (log10)” value was 0.00999.
With “TACTGGGCATGGACCGGTTTTCCCGGTAATCCGTATTTGAA (site TACTGGGCTTT)”, the “recombinant UMI read abundance (log10)” value came out at 0.637.
With “TACTTGACATGGACCGGTTTTCCCGGTAATCCGTATTTGCA (site TACTTGACTAG)”, the “recombinant UMI read abundance (log10)” value is 0.
